Each molecule was assayed against T1, calcium receptor (CasR) (Homo sapiens, UniProt P41180) (assay: FLIPR Assay for Evaluating the Potency and Selectivity of Test Compounds). Conditions: HEK 293 cells expressing CasR; 30 minutes pre-incubation; stimulation by 1.7 mM Ca2+; read 42 seconds after stimulation.
T1 construct: expressed in transfected cells; host or cells: HEK 293
T1 sequence (P41180 20-1078): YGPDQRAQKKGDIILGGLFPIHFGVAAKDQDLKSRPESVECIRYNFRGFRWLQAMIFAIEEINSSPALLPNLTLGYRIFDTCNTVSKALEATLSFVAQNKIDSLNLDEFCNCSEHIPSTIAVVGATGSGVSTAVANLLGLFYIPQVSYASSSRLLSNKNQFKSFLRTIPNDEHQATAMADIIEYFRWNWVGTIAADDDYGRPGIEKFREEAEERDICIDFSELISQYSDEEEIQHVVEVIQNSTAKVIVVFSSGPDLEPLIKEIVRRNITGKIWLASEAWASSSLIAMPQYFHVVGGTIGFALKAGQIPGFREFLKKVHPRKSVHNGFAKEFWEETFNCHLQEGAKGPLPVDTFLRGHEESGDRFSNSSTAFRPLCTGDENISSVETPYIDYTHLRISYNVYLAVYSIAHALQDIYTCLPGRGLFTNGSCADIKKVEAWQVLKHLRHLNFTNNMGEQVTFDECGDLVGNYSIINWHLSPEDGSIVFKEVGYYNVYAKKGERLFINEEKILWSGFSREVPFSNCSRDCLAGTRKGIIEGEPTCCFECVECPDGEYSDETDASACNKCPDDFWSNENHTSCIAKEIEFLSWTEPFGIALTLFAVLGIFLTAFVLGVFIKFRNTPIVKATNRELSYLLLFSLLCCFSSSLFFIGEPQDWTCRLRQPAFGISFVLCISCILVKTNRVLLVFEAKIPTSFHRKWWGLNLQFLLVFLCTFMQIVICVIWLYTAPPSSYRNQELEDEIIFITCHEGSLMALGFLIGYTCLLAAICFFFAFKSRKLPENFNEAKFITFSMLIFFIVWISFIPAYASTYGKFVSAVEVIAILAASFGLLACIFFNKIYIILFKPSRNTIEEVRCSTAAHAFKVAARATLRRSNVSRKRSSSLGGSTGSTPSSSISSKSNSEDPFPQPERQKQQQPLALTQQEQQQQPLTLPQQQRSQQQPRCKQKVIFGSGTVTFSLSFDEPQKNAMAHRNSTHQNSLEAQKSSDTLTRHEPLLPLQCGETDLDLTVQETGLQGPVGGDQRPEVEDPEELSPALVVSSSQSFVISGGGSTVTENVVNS
Assay type: cell-based
Source text: FLIPR Assay for Evaluating the Potency and Selectivity of Test Compounds
Human kidney cell (HEK 293) expressing the calcium receptor (CasR) are used to detect antagonists of the receptor using Fluorometric imaging plate reader (FLIPR, Molecular Devices, Sunnyvale Calif.). Receptor activation by extracellular calcium results in the release of calcium from intracellular stores into the cytosol. A fluorescent indicator (Fluo-4) is internalized by the cells from growth media and interacts with calcium released into the cytosol to provide a means of quantifying intracellular Ca^2+ levels and receptor agonism/antagonism. Fluorescence intensity is detected by the FLIPR CCD camera and traced as a function of time. Potential antagonists are identified by their ability to decrease this fluorescent response.
Prior to the addition of test compound cells are washed with a 10 mM HEPES buffer solution. The test compound, for example the compound of Example 1, is added at various doses (from 1 µM to 3 nM) and pre-incubated with cells for 30 minutes followed by stimulation of the CasR by the addition of 1.7 mM Ca^2+. IC50 values are based on the ability of the cells to inhibit the Ca^2+ induced increase in intracellular Ca^2+. Fluorescence signal is read 42 seconds after the stimulation of the CasR by the addition of 1.7 mM Ca^2+.
The following table provides FLIPR IC50 data for the specified Examples. The IC50s are reported as micromolar concentration with n being the number of times the particular compound was assayed.

Compound	IC50 [µM]
COc1ccccc1CCn1c(-c2ccccc2O)nc2ccnc(C(F)(F)F)c2c1=O [Example 55, 3-(2-methoxyphenethyl)-2-(2-hydroxyphenyl)-5-(trifluoromethyl)pyrido[4,3-d]pyrimidin-4(3H)-one]	0.72
O=c1c2c(C(F)(F)F)nccc2nc(-c2cscn2)n1CCc1ccccc1F [Example 56, 3-(2-fluorophenethyl)-2-(thiazol-4-yl)-5-(trifluoromethyl)pyrido[4,3-d]pyrimidin-4(3H)-one]	1.54
C[C@H](Cc1ccccc1)n1c(C2CCCC2)nc2ccnc(C(F)(F)F)c2c1=O [Example 57, (R)-2-cyclopentyl-3-(1-phenylpropan-2-yl)-5-(trifluoromethyl)pyrido[4,3-d]pyrimidin-4(3H)-one]	1.67
CC(C)c1nc2ccnc(C(F)(F)F)c2c(=O)n1CCc1ccccc1 [Example 58, 2-isopropyl-3-phenethyl-5-(trifluoromethyl)pyrido[4,3-d]pyrimidin-4(3H)-one]	4.68
O=c1c2c(C(F)(F)F)nccc2nc(C2CCCC2)n1CCc1ccccc1 [Example 59, 2-cyclopentyl-3-phenethyl-5-(trifluoromethyl)pyrido[4,3-d]pyrimidin-4(3H)-one]	7.79
COc1ccccc1CCn1c(-c2cscn2)nc2ccnc(C(F)(F)F)c2c1=O [Example 60, 3-(2-methoxyphenethyl)-2-(thiazol-4-yl)-5-(trifluoromethyl)pyrido[4,3-d]pyrimidin-4(3H)-one]	23.2
O=c1c2c(C(F)(F)F)nccc2nc(-c2cscn2)n1CCC1CCCCC1 [Example 61, 3-(2-cyclohexylethyl)-2-(thiazol-4-yl)-5-(trifluoromethyl)pyrido[4,3-d]pyrimidin-4(3H)-one]	0.5
N#Cc1ccccc1-c1nc2ccnc(C(F)(F)F)c2c(=O)n1CCC1CCCCC1 [Example 62, 2-(3-(2-cyclohexylethyl)-4-oxo-5-(trifluoromethyl)-3,4-dihydropyrido[4,3-d]pyrimidin-2-yl)benzonitrile]	4.63
Nc1cccnc1-c1nc2ccnc(C(F)(F)F)c2c(=O)n1CCc1ccccc1 [Example 63, 2-(3-aminopyridin-2-yl)-3-phenethyl-5-(trifluoromethyl)pyrido[4,3-d]pyrimidin-4(3H)-one]	0.77
CS(=O)(=O)Nc1cccnc1-c1nc2ccnc(C(F)(F)F)c2c(=O)n1CCc1ccccc1 [Example 64, N-(2-(4-oxo-3-phenethyl-5-(trifluoromethyl)-3,4-dihydropyrido[4,3-d]pyrimidin-2-yl)pyridin-3-yl)methanesulfonamide]	61.8
CC(Cc1ccccc1F)n1c(-c2cscn2)nc2ccnc(C(F)(F)F)c2c1=O (stereo not drawn) [Example 65, 3-(1-(2-fluorophenyl)propan-2-yl)-2-(thiazol-4-yl)-5-(trifluoromethyl)pyrido[4,3-d]pyrimidin-4(3H)-one]	10.5
CC(C)CCn1c(-c2ncccc2O)nc2ccnc(C(F)(F)F)c2c1=O [Example 66, 2-(3-hydroxypyridin-2-yl)-3-isopentyl-5-(trifluoromethyl)pyrido[4,3-d]pyrimidin-4(3H)-one]	36.2
O=c1c2c(C(F)(F)F)nccc2nc(-c2ncccc2O)n1CC1CCOCC1 [Example 67, 2-(3-hydroxypyridin-2-yl)-3-((tetrahydro-2H-pyran-4-yl)methyl)-5-(trifluoromethyl)pyrido[4,3-d]pyrimidin-4(3H)-one]	> 1
O=c1c2c(C(F)(F)F)nccc2nc(-c2ncccc2O)n1CCC1CCOCC1 [Example 68, 2-(3-hydroxypyridin-2-yl)-3-(2-(tetrahydro-2H-pyran-4-yl)ethyl)-5-(trifluoromethyl)pyrido[4,3-d]pyrimidin-4(3H)-one]	> 1
COc1ccc(F)c(CCn2c(-c3ncccc3O)nc3ccnc(C(F)(F)F)c3c2=O)c1 [Example 69, 3-(2-fluoro-5-methoxyphenethyl)-2-(3-hydroxypyridin-2-yl)-5-(trifluoromethyl)pyrido[4,3-d]pyrimidin-4(3H)-one]	66.9
COc1cccc(CCn2c(-c3ncccc3O)nc3ccnc(C(F)(F)F)c3c2=O)c1F [Example 70, 3-(2-fluoro-3-methoxyphenethyl)-2-(3-hydroxypyridin-2-yl)-5-(trifluoromethyl)pyrido[4,3-d]pyrimidin-4(3H)-one]	61.9
N#Cc1ccccc1-c1nc2cccc(C(F)(F)F)c2c(=O)n1CCc1ccccc1F [Example 71, 2-(3-(2-fluorophenethyl)-4-oxo-5-(trifluoromethyl)-3,4-dihydroquinazolin-2-yl)benzonitrile]	0.42
O=C(Nc1cccnc1-c1nc2ccnc(C(F)(F)F)c2c(=O)n1CCc1ccccc1F)C(F)(F)F [Example 72, N-(2-(3-(2-fluorophenethyl)-4-oxo-5-(trifluoromethyl)-3,4-dihydropyrido[4,3-d]pyrimidin-2-yl)pyridin-3-yl)-2,2,2-trifluoroacetamide]	0.94
C[C@H](Cc1ccccc1)n1c(-c2ncccc2NC(=O)C(F)(F)F)nc2ccnc(C(F)(F)F)c2c1=O [Example 73, (R)-2,2,2-trifluoro-N-(2-(4-oxo-3-(1-phenylpropan-2-yl)-5-(trifluoromethyl)-3,4-dihydropyrido[4,3-d]pyrimidin-2-VI)pyridin-3-VI)acetamide]	0.2
O=c1c2c(C(F)(F)F)nccc2nc(-c2ncccc2O)n1C1CCCCC1 [Example 74, 3-cyclohexyl-2-(3-hydroxypyridin-2-yl)-5-(trifluoromethyl)pyrido[4,3-d]pyrimidin-4(3H)-one]	47.8
O=c1c2c(C(F)(F)F)nccc2nc(-c2ncccc2C(F)(F)F)n1CCc1ccccc1 [Example 76, 3-Phenethyl-5-trifluoromethyl-2-(3-trifluoromethyl-pyridin-2-yl)-3H-pyrido[4,3-d]pyrimidin-4-one]	6.3
C[C@H](Cc1ccccc1)n1c(-c2ncccc2C(F)(F)F)nc2ccnc(C(F)(F)F)c2c1=O [Example 77]	0.7
Nc1scnc1-c1nc2ccnc(C(F)(F)F)c2c(=O)n1CCc1ccccc1 [Example 78, 2-(5-aminothiazol-4-yl)-3-phenethyl-5-(trifluoromethyl)pyrido[4,3-d]pyrimidin-4(3H)-one]	9.83
O=c1c2c(C(F)(F)F)nccc2nc(-c2ccccc2C(F)F)n1CCc1ccccc1 [Example 79, 2-(2-(difluoromethyl)phenyl)-3-phenethyl-5-(trifluoromethyl)pyrido[4,3-d]pyrimidin-4(3H)-one]	0.39
O=c1c2c(C(F)(F)F)nccc2nc(-c2ncccc2C(F)F)n1CCc1ccccc1 [Example 80, 2-(3-(difluoromethyl)pyridin-2-yl)-3-phenethyl-5-(trifluoromethyl)pyrido[4,3-d]pyrimidin-4(3H)-one]	0.3
O=c1c2c(C(F)(F)F)nccc2nc(-c2ccccc2C(F)(F)F)n1CCC1CCCCC1 [Example 81, 3-(2-cyclohexylethyl)-5-(trifluoromethyl)-2-(2-(trifluoromethyl)phenyl)pyrido[4,3-d]pyrimidin-]	7.89
O=c1c2c(C(F)(F)F)nccc2nc(-c2ncccc2C(F)(F)F)n1CCC1CCCCC1 [Example 82, 3-(2-cyclohexylethyl)-5-(trifluoromethyl)-2-(3-(trifluoromethyl)pyridin-2-yl)pyrido[4,3-d]pyrimidin-4(3H)-one]	2.53

Reference: patent US7829572B2 (Pfizer Inc, priority 2006, dated 2010)
